# Data from patent US9109041B2, “Analog compounds of analgesic peptides derived from the venom of crotalus durissus terrificus snakes, their uses, compositions, methods of preparation and purification” (priority 2004, dated 2015).
# Tested on: prostaglandin E2-induced hyperalgesia
# Assay: rat paw pressure test, prostaglandin E2-induced hyperalgesia
# Conditions: for 50% effective dose / 60% effective dose / 90% effective dose: reversal of PGE2-induced hyperalgesia, CurveExpert 1.3
substance,measurement,setting,value
Xaa-Phe-Ser-Pro-Glu-Asn-Cys-Gln-Gly-Glu-Ser-Gln-Pro-Cys [SEQ ID NO: 2],"pain threshold, FM (g) ± S.E.M","0.0016 μg/kg p.o., 3 h after PGE2 100 ng/paw i.pl.",64 ± 1.00 g
same,"pain threshold, IM (g) ± S.E.M.","0.0016 μg/kg p.o., before PGE2",78 ± 1.22 g
same,"pain threshold, FM (g) ± S.E.M","0.0016 μg/paw i.pl., 3 h after PGE2 100 ng/paw i.pl.",67 ± 1.12 g
same,"pain threshold, IM (g) ± S.E.M.","0.0016 μg/paw i.pl., before PGE2",72 ± 1.84 g
same,"pain threshold, FM (g) ± S.E.M","0.008 μg/kg i.v., 3 h after PGE2 100 ng/paw i.pl.",73 ± 4.74 g
same,"pain threshold, IM (g) ± S.E.M.","0.008 μg/kg i.v., before PGE2",69 ± 2.26 g
same,"pain threshold, FM (g) ± S.E.M","0.008 μg/kg p.o., 3 h after PGE2 100 ng/paw i.pl.",71 ± 2.39 g
same,"pain threshold, IM (g) ± S.E.M.","0.008 μg/kg p.o., before PGE2",79 ± 1.25 g
same,"pain threshold, FM (g) ± S.E.M","0.04 μg/kg p.o., 3 h after PGE2 100 ng/paw i.pl.",75 ± 1.87 g
same,"pain threshold, IM (g) ± S.E.M.","0.04 μg/kg p.o., before PGE2",77 ± 1.22 g
same,"pain threshold, FM (g) ± S.E.M","0.2 μg/kg p.o., 3 h after PGE2 100 ng/paw i.pl.",84 ± 1.87 g
same,"pain threshold, IM (g) ± S.E.M.","0.2 μg/kg p.o., before PGE2",77 ± 2.00 g
same,"pain threshold, FM (g) ± S.E.M","1 μg/kg p.o. + CTOP 20 μg/leg i.pl. with PGE2, 3 h after PGE2",114 ± 1.87 g
same,"pain threshold, IM (g) ± S.E.M.","1 μg/kg p.o. + CTOP 20 μg/leg i.pl., before PGE2",77 ± 1.22 g
same,"pain threshold, FM (g) ± S.E.M","1 μg/kg p.o. + ICI174,864 10 μg/paw i.pl. with PGE2, 3 h after PGE2",114 ± 1.00 g
same,"pain threshold, IM (g) ± S.E.M.","1 μg/kg p.o. + ICI174,864 10 μg/paw i.pl., before PGE2",78 ± 1.22 g
same,"pain threshold, FM (g) ± S.E.M","1 μg/kg p.o. + nor-Binalthorphimine 50 μg/leg i.pl. with PGE2, 3 h after PGE2",56 ± 1.87 g
same,"pain threshold, IM (g) ± S.E.M.","1 μg/kg p.o. + nor-Binalthorphimine 50 μg/leg i.pl., before PGE2",77 ± 1.22 g
same,"pain threshold, IM (g) ± S.E.M.","1 μg/kg p.o., 0 h, before administration (Table 6)",79 ± 1.00 g
same,"pain threshold, FM (g) ± S.E.M","1.0 μg/kg p.o., 3 h after PGE2 100 ng/paw i.pl. (Table 2)",108 ± 2.00 g
same,"pain threshold, FM (g) ± S.E.M","1 μg/kg p.o., 3 h after PGE2 100 ng/paw i.pl. (Table 7)",111 ± 3.32 g
same,"pain threshold, FM (g) ± S.E.M","1 μg/kg p.o., 24 h after administration, PGE2 100 ng/paw 3 h before measurement",126 ± 3.32 g
same,"pain threshold, FM (g) ± S.E.M","1 μg/kg p.o., 48 h after administration, PGE2 100 ng/paw 3 h before measurement",121 ± 1.87 g
same,"pain threshold, FM (g) ± S.E.M","1 μg/kg p.o., 72 h after administration, PGE2 100 ng/paw 3 h before measurement",111 ± 4.3 g
same,"pain threshold, FM (g) ± S.E.M","1 μg/kg p.o., 96 h after administration, PGE2 100 ng/paw 3 h before measurement",117 ± 2.5 g
same,"pain threshold, FM (g) ± S.E.M","1 μg/kg p.o., 120 h after administration, PGE2 100 ng/paw 3 h before measurement",130 ± 2.24 g
same,"pain threshold, FM (g) ± S.E.M","1 μg/kg p.o., 144 h after administration, PGE2 100 ng/paw 3 h before measurement",59 ± 2.39 g
same,"pain threshold, IM (g) ± S.E.M.","1.0 μg/kg p.o., before PGE2 (Table 2)",77 ± 2.00 g
same,"pain threshold, IM (g) ± S.E.M.","1 μg/kg p.o., before PGE2 (Table 7)",77 ± 1.22 g
same,"pain threshold, FM (g) ± S.E.M","5 μg/kg p.o. + ICI174,864 i.pl. with PGE2, 3 h after PGE2",145 ± 2.89 g
same,"pain threshold, IM (g) ± S.E.M.","5 μg/kg p.o. + ICI174,864 i.pl., before PGE2",77 ± 1.05 g
same,"pain threshold, FM (g) ± S.E.M","5 μg/kg p.o. + nor-BNI i.pl. with PGE2, 3 h after PGE2",58 ± 2.47 g
same,"pain threshold, IM (g) ± S.E.M.","5 μg/kg p.o. + nor-BNI i.pl., before PGE2",77 ± 1.05 g
same,"pain threshold, FM (g) ± S.E.M","5.0 μg/kg p.o., 3 h after PGE2 100 ng/paw i.pl. (Table 2)",130 ± 1.58 g
same,"pain threshold, FM (g) ± S.E.M","5 μg/kg p.o., 3 h after PGE2 100 ng/paw i.pl. (Table 8)",147 ± 2.55 g
same,"pain threshold, IM (g) ± S.E.M.","5.0 μg/kg p.o., before PGE2 (Table 2)",78 ± 2.00 g
same,"pain threshold, IM (g) ± S.E.M.","5 μg/kg p.o., before PGE2 (Table 8)",77 ± 1.22 g
same,"pain threshold, FM (g) ± S.E.M","25.0 μg/kg p.o., 3 h after PGE2 100 ng/paw i.pl.",133 ± 3.39 g
same,"pain threshold, IM (g) ± S.E.M.","25.0 μg/kg p.o., before PGE2",79 ± 1.87 g
same,50% effective dose,intraplantar route,0.000002327 µg/kg
same,60% effective dose,intraplantar route,0.000004904 µg/kg
same,90% effective dose,intraplantar route,0.002876 µg/kg
same,50% effective dose,intravenous route,0.0000458 µg/kg
same,60% effective dose,intravenous route,0.0002144 µg/kg
same,90% effective dose,intravenous route,0.002701 µg/kg
same,duration of the antinociceptive effect,"one single administration, 1 μg/kg p.o.",up to 120 hours
same,50% effective dose,oral route,0.004146 µg/kg
same,60% effective dose,oral route,0.006348 µg/kg
same,90% effective dose,oral route,0.02106 µg/kg
same,opioid receptors involved in the antinociceptive effect,"peptide 1 μg/kg p.o., delta, kappa, mu antagonists i.pl.",kappa opioid receptors are involved
same,opioid receptors involved in the antinociceptive activity,"peptide 5 μg/kg p.o., kappa and delta antagonists i.pl.",kappa opioid receptors are involved
same,analgesic activity,"synthetic peptides compared with natural ENPAK-k, similar conditions",same analgesic activity as the natural ENPAK-k
